From publication PMC11336974 (2024)

Columns and labels:
[1] = test system: miR-193a-5p (RNA, miRNA) UGGGUCUUUGCGGGCAAGAUGA; experiment: CD spectra; settings: 190 mM NaCl; 20 mM HEPES pH 7.2, 1 mM EDTA, BSA, Tween-20; 200 µM Trp
[2] = test system: miR-193a-3p (RNA, miRNA) AACUGGCCUACAAAGUCCCAGU; experiment: ITC; settings: 190 mM NaCl; 20 mM HEPES pH 7.2, 1 mM EDTA, 37.5 µg/ml BSA, 0.02% Tween-20; apparent
[3] = test system: biotinylated miR-193a-3p (RNA, miRNA) AACUGGCCUACAAAGUCCCAGU; experiment: SPR (OpenSPR); settings: 190 mM NaCl; 10 mM HEPES, 1 mM EDTA, 0.02% Tween-20; Trp 2, 20, 200 µM
[4] = test system: mutated miR-193a-3p (miR-193a-mut) (RNA, miRNA) AACUUCCUACAAAGUCCCAGU; experiment: ITC; settings: 190 mM NaCl; 20 mM HEPES pH 7.2, 1 mM EDTA, BSA, Tween-20; 200 µM Trp titrant
[5] = test system: miR-193a-3p (RNA, miRNA) AACUGGCCUACAAAGUCCCAGU; experiment: CD spectra; settings: 190 mM NaCl; 20 mM HEPES pH 7.2, 1 mM EDTA, BSA, Tween-20; 100 nM RNA, 200 µM Trp
[6] = test system: mutated miR-193a-3p (miR-193a-mut) (RNA, miRNA) AACUUCCUACAAAGUCCCAGU; experiment: CD spectra; settings: 190 mM NaCl; 20 mM HEPES pH 7.2, 1 mM EDTA, BSA, Tween-20; 200 µM Trp

For `N[C@@H](Cc1c[nH]c2ccccc12)C(=O)O`, the binding [1] was “no”, the Kd [2] was 5.3 µM and the binding [3] was “yes”. For the same compound, the binding [4] was “no”, the binding [5] was “yes” and the binding [6] was “no”.
